In ChEMBL document CHEMBL4177730, “Rational modification of semaxanib and sunitinib for developing a tumor growth inhibitor targeting ATP binding site of tyrosine kinase” (2018):
The source made the active and inactive calls.

Experiments:
Assay type in all cases: functional, cell-based
CCRF-CEM = test: Growth inhibition of human CCRF-CEM cells at 10 uM after 48 hrs by sulforhodamine B assay
HL-60(TB) = test: Growth inhibition of human HL-60(TB) cells at 10 uM after 48 hrs by sulforhodamine B assay
K562 = test: Growth inhibition of human K562 cells at 10 uM after 48 hrs by sulforhodamine B assay
MOLT-4 = test: Growth inhibition of human MOLT4 cells at 10 uM after 48 hrs by sulforhodamine B assay
RPMI-8226 = test: Growth inhibition of human RPMI8226 cells at 10 uM after 48 hrs by sulforhodamine B assay
SR = test: Growth inhibition of human SR cells at 10 uM after 48 hrs by sulforhodamine B assay
A549 = test: Growth inhibition of human A549/ATCC cells at 10 uM after 48 hrs by sulforhodamine B assay
EKVX = test: Growth inhibition of human EKVX cells at 10 uM after 48 hrs by sulforhodamine B assay
HOP-62 = test: Growth inhibition of human HOP62 cells at 10 uM after 48 hrs by sulforhodamine B assay
HOP-92 = test: Growth inhibition of human HOP92 cells at 10 uM after 48 hrs by sulforhodamine B assay
NCI-H226 = test: Growth inhibition of human NCI-H226 cells at 10 uM after 48 hrs by sulforhodamine B assay
NCI-H23 = test: Growth inhibition of human NCI-H23 cells at 10 uM after 48 hrs by sulforhodamine B assay
NCI-H322M = test: Growth inhibition of human NCI-H322M cells at 10 uM after 48 hrs by sulforhodamine B assay
NCI-H460 = test: Growth inhibition of human NCI-H460 cells at 10 uM after 48 hrs by sulforhodamine B assay
NCI-H522 = test: Growth inhibition of human NCI-H522 cells at 10 uM after 48 hrs by sulforhodamine B assay
COLO 205 = test: Growth inhibition of human COLO205 cells at 10 uM after 48 hrs by sulforhodamine B assay
HCC 2998 = test: Growth inhibition of human HCC2998 cells at 10 uM after 48 hrs by sulforhodamine B assay
HCT-116 = test: Growth inhibition of human HCT116 cells at 10 uM after 48 hrs by sulforhodamine B assay
HCT-15 = test: Growth inhibition of human HCT15 cells at 10 uM after 48 hrs by sulforhodamine B assay
HT-29 = test: Growth inhibition of human HT-29 cells at 10 uM after 48 hrs by sulforhodamine B assay
KM12 = test: Growth inhibition of human KM12 cells at 10 uM after 48 hrs by sulforhodamine B assay
SW-620 = test: Growth inhibition of human SW620 cells at 10 uM after 48 hrs by sulforhodamine B assay
SF-268 = test: Growth inhibition of human SF268 cells at 10 uM after 48 hrs by sulforhodamine B assay
SF-295 = test: Growth inhibition of human SF295 cells at 10 uM after 48 hrs by sulforhodamine B assay
SF-539 = test: Growth inhibition of human SF539 cells at 10 uM after 48 hrs by sulforhodamine B assay
SNB-19 = test: Growth inhibition of human SNB19 cells at 10 uM after 48 hrs by sulforhodamine B assay
SNB-75 = test: Growth inhibition of human SNB75 cells at 10 uM after 48 hrs by sulforhodamine B assay
U-251 = test: Growth inhibition of human U251 cells at 10 uM after 48 hrs by sulforhodamine B assay
LOX IMVI = test: Growth inhibition of human LOXIMVI cells at 10 uM after 48 hrs by sulforhodamine B assay
Malme-3M = test: Growth inhibition of human MALME-3M cells at 10 uM after 48 hrs by sulforhodamine B assay
M14 = test: Growth inhibition of human M14 cells at 10 uM after 48 hrs by sulforhodamine B assay
MDA-MB-435 = test: Growth inhibition of human MDA-MB-435 cells at 10 uM after 48 hrs by sulforhodamine B assay
SK-MEL-2 = test: Growth inhibition of human SK-MEL-2 cells at 10 uM after 48 hrs by sulforhodamine B assay
SK-MEL-28 = test: Growth inhibition of human SK-MEL-28 cells at 10 uM after 48 hrs by sulforhodamine B assay
SK-MEL-5 = test: Growth inhibition of human SK-MEL-5 cells at 10 uM after 48 hrs by sulforhodamine B assay
UACC-62 = test: Growth inhibition of human UACC62 cells at 10 uM after 48 hrs by sulforhodamine B assay
IGROV-1 = test: Growth inhibition of human IGROV1 cells at 10 uM after 48 hrs by sulforhodamine B assay
OVCAR-3 = test: Growth inhibition of human OVCAR3 cells at 10 uM after 48 hrs by sulforhodamine B assay
OVCAR-4 = test: Growth inhibition of human OVCAR4 cells at 10 uM after 48 hrs by sulforhodamine B assay
OVCAR-5 = test: Growth inhibition of human OVCAR5 cells at 10 uM after 48 hrs by sulforhodamine B assay
OVCAR-8 = test: Growth inhibition of human OVCAR8 cells at 10 uM after 48 hrs by sulforhodamine B assay
NCI/ADR-RES = test: Growth inhibition of human NCI-ADR-RES cells at 10 uM after 48 hrs by sulforhodamine B assay
SK-OV-3 = test: Growth inhibition of human SKOV3 cells at 10 uM after 48 hrs by sulforhodamine B assay
786-0 = test: Growth inhibition of human 786-0 cells at 10 uM after 48 hrs by sulforhodamine B assay
A498 = test: Growth inhibition of human A498 cells at 10 uM after 48 hrs by sulforhodamine B assay
ACHN = test: Growth inhibition of human ACHN cells at 10 uM after 48 hrs by sulforhodamine B assay
CAKI-1 = test: Growth inhibition of human CAKI-1 cells at 10 uM after 48 hrs by sulforhodamine B assay
RXF 393 = test: Growth inhibition of human RXF393 cells at 10 uM after 48 hrs by sulforhodamine B assay
SN12C = test: Growth inhibition of human SN12C cells at 10 uM after 48 hrs by sulforhodamine B assay
TK-10 = test: Growth inhibition of human TK10 cells at 10 uM after 48 hrs by sulforhodamine B assay
UO-31 = test: Growth inhibition of human UO31 cells at 10 uM after 48 hrs by sulforhodamine B assay
PC-3 = test: Growth inhibition of human PC3 cells at 10 uM after 48 hrs by sulforhodamine B assay
DU-145 = test: Growth inhibition of human DU145 cells at 10 uM after 48 hrs by sulforhodamine B assay
MCF7 = test: Growth inhibition of human MCF7 cells at 10 uM after 48 hrs by sulforhodamine B assay
MDA-MB-231 = test: Growth inhibition of human MDA-MB-231 cells at 10 uM after 48 hrs by sulforhodamine B assay
Hs-578T = test: Growth inhibition of human Hs 578T cells at 10 uM after 48 hrs by sulforhodamine B assay
BT-549 = test: Growth inhibition of human BT549 cells at 10 uM after 48 hrs by sulforhodamine B assay
T47D = test: Growth inhibition of human T47D cells at 10 uM after 48 hrs by sulforhodamine B assay
MDA-MB-468 = test: Growth inhibition of human MDA-MB-468 cells at 10 uM after 48 hrs by sulforhodamine B assay

Measured: growth inhibition (GI)

O=C1/C(=C\c2cccn2C(=O)c2ccccc2)c2ccccc2N1c1c(Cl)cccc1Cl
inactive: all assays above
